Reference: publication PMC4245237, “Searching the Cytochrome P450 Enzymes for the Metabolism of Meranzin Hydrate: A Prospective Antidepressant Originating from Chaihu-Shugan-San” (PLoS ONE, 2014)
Values joined by “and” are separate entries in the source; they are usually repeats but may differ in a detail not shown here. Equal entries are not always repeated. “Also recorded” adds a separate entry of the source. Structures can show the parent of a compound that is named as a salt. Where two headings read alike, the source gives them in different places.

Legend:
CYP2E1 = CYP2E1 (Homo sapiens, UniProt P05181); details: cited from earlier work
Sequence of CYP2E1 (P05181 whole entry): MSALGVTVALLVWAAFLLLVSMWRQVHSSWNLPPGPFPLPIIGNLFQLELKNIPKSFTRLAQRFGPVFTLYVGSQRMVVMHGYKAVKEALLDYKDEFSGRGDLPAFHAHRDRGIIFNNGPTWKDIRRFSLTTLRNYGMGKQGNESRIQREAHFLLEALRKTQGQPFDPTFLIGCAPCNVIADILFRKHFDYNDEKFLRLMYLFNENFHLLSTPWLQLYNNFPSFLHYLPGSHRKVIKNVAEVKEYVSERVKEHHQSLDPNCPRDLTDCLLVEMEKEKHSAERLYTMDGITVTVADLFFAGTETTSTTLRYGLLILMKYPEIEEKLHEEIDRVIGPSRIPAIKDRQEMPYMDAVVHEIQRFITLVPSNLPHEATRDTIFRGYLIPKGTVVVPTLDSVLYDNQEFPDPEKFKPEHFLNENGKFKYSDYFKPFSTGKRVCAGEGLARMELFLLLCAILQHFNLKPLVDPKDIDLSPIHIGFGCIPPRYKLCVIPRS

[1] = test system: human liver microsomes (HLMs); experiment: Kinetic analysis of MH metabolism in HLMs; format: in vitro ADME; details: HLMs 0.5 mg/mL, MH 0.5–100 µM, 30 min, 37°C
CYP2C9 [2] = molecular target: T1, CYP2C9 (Homo sapiens, UniProt P11712); experiment: Effect of specific inhibitor sulfaphenazole on MH metabolism in HLMs; format: in vitro ADME; details: MH 10 µM, in the presence of SUL 1 µM
T1 construct: tissue Cypex Ltd. (U.K.); host or cells: pooled human liver microsomes, ten donors
T1 sequence (P11712 whole entry): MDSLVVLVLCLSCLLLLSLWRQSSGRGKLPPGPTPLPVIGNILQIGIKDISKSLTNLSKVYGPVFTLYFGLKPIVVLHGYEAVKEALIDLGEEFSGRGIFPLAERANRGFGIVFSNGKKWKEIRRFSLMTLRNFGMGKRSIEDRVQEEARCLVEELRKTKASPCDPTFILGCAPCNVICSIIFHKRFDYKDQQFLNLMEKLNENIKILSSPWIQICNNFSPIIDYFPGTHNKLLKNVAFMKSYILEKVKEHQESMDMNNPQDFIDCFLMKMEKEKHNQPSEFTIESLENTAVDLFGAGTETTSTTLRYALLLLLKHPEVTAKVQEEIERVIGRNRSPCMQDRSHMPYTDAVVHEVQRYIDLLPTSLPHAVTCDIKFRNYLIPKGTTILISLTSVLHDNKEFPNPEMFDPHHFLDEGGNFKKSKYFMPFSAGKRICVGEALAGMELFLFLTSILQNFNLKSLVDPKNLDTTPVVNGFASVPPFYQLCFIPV
Description: (§1) The samples were vortexed for 5 min.
(§2) P<0.05 denoted significance in all cases.

CYP2D6 [3] = molecular target: T2, CYP2D6 (Homo sapiens, UniProt P10635); experiment: Effect of specific inhibitor quinidine on MH metabolism in HLMs; format: in vitro ADME; details: MH 10 µM, in the presence of QUI 1 µM
T2 construct: tissue Cypex Ltd. (U.K.); host or cells: pooled human liver microsomes, ten donors
T2 sequence (P10635 whole entry): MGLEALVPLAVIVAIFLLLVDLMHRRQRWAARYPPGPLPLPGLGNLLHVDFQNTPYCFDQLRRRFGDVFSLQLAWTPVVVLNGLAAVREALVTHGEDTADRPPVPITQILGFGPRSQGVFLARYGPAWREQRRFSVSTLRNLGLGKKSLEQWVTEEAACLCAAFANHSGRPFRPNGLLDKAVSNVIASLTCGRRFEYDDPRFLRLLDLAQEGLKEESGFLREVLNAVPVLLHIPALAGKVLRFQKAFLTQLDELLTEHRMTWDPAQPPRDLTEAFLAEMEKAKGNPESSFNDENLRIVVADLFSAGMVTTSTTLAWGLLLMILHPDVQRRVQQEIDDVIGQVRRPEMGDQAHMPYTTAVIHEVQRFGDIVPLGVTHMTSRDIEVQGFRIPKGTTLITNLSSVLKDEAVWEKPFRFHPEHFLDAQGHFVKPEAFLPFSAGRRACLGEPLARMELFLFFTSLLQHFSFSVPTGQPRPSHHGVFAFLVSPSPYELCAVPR
Description: as §1, §2

CYP3A4 [4] = molecular target: T3, CYP3A4 (Homo sapiens, UniProt P08684); experiment: Effect of specific inhibitor ketoconazole on MH metabolism in HLMs; format: in vitro ADME; details: MH 10 µM, in the presence of KET 1 µM
T3 construct: tissue Cypex Ltd. (U.K.); host or cells: pooled human liver microsomes, ten donors
T3 sequence (P08684 whole entry): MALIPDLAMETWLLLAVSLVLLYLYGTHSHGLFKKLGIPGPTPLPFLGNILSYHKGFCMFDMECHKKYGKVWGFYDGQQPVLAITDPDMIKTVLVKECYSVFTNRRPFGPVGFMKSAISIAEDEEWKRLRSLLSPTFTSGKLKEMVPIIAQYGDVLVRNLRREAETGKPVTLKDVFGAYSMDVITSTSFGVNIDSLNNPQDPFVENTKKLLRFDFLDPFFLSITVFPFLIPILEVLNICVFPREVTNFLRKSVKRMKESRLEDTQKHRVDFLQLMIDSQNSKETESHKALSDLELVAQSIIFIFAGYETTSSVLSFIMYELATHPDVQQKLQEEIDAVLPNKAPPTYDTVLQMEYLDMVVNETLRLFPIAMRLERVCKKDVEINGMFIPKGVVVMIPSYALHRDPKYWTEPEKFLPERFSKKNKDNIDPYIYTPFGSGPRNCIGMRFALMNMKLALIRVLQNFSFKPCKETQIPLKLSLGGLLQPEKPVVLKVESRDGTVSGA
Description: as §1, §2

CYP2C9 [5] = molecular target: T1, CYP2C9; experiment: Inhibition of CYP2C9 (tolbutamide 4-hydroxylation) in HLMs; format: in vitro ADME
Description: as §1
(§3) All incubation conditions were the same as mentioned above.
as §2

CYP2D6 [6] = molecular target: T2, CYP2D6; experiment: Inhibition of CYP2D6 (metoprolol α-hydroxylation) in HLMs; format: in vitro ADME
Description: as §1, §3, §2

CYP3A4 [7] = molecular target: T3, CYP3A4; experiment: Inhibition of CYP3A4 (midazolam 1-hydroxylation) in HLMs; format: in vitro ADME
Description: as §1, §3, §2

[8] = test system: longitudinal and circular jejunum muscles; details: dose-dependent manner; cited from earlier work
[9] = set-up: method as in PMID 21061180; details: rats; cited from earlier work
CYP1A2 [10] = molecular target: T4, CYP1A2 (Homo sapiens, UniProt P05177); experiment: Kinetic analysis of MH metabolism by recombinant CYP1A2; format: in vitro ADME; set-up: purchased Cypex Ltd. (U.K.); details: recombinant CYP1A2 10 pmol
T4 sequence (P05177 1-516): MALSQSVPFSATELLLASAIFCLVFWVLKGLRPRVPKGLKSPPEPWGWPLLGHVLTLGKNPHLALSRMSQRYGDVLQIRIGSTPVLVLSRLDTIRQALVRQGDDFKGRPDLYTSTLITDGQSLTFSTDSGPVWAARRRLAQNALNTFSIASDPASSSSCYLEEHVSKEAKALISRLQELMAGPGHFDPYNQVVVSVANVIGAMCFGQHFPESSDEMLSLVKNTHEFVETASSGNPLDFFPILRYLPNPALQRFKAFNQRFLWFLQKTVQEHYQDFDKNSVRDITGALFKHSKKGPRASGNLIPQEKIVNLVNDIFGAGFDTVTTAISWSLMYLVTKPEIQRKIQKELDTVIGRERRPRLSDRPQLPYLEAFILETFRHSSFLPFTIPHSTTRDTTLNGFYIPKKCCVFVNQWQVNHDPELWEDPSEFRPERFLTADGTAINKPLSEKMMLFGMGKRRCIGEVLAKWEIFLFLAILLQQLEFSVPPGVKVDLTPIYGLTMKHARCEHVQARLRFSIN
Description: as §1
(§4) Kinetic analysis was performed for MH, and the data generated were used as a guide for selecting the appropriate concentrations of MH in the subsequent inhibition experiments. Thus, the kinetic parameters for the metabolism of MH was determined by incubating increasing concentrations of MH (0.5–100 µM) (without the inhibitor) at 37°C with the HLMs and NADPH under the incubation conditions. The equation of MH reaction velocity (V) in the HLMs or CYP isoforms was expressed as V = (C0–Ct)/T/Cp, where C0 and Ct represented the initial and final concentrations of MH in the incubation solution, respectively. T was the incubation time (min) and Cp was the protein concentration (mg/mL or nmol). All values were expressed as the mean±standard deviation (SD). The mean intrinsic clearance rate (CLint) for the in vitro incubation was estimated using Vmax/Km.
as §2

CYP2C19 [11] = molecular target: T5, CYP2C19 (Homo sapiens, UniProt P33261); experiment: Kinetic analysis of MH metabolism by recombinant CYP2C19; format: in vitro ADME; set-up: purchased Cypex Ltd. (U.K.); details: recombinant CYP2C19 10 pmol
T5 sequence (P33261 whole entry): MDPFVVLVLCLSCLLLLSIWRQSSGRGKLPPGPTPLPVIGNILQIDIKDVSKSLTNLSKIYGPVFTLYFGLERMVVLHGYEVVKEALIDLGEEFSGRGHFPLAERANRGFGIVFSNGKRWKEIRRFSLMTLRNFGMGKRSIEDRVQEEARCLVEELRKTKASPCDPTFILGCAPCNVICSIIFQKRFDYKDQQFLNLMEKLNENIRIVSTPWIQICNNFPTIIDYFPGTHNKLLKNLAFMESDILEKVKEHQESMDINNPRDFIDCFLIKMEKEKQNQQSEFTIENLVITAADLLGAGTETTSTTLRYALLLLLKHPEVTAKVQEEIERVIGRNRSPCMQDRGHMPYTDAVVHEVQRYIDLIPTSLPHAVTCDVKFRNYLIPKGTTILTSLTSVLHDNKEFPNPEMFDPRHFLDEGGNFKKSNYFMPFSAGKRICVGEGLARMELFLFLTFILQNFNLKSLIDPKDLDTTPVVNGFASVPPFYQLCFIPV
Description: as §1, §4, §2

CYP1A2 [12] = molecular target: T4, CYP1A2; experiment: MCR of MH with recombinant CYP1A2 inhibited by furafylline; format: in vitro ADME; set-up: purchased Cypex Ltd. (U.K.); details: furafylline 1 µM
Description: as §1
(§5) Figure 3 Effect on the metabolic clearance rate (MCR) of meranzin hydrate (MH) under the inhibition of recombinant CYP1A2 and CYP2C19. […] Each point represents the average of triplicate incubations.

CYP2C19 [13] = molecular target: T5, CYP2C19; experiment: MCR of MH with recombinant CYP2C19 inhibited by ticlopidine; format: in vitro ADME; set-up: purchased Cypex Ltd. (U.K.); details: ticlopidine 1 µM
Description: as §1, §5

CYP1A2 [14] = molecular target: T4, CYP1A2; experiment: Effect of specific inhibitor furafylline on MH metabolism in HLMs; format: in vitro ADME; set-up: tissue Cypex Ltd. (U.K.); host or cells: pooled human liver microsomes, ten donors; details: MH 10 µM, in the presence of FUR 1 µM
Description: as §1, §2

CYP2C19 [15] = molecular target: T5, CYP2C19; experiment: Effect of specific inhibitor ticlopidine on MH metabolism in HLMs; format: in vitro ADME; set-up: tissue Cypex Ltd. (U.K.); host or cells: pooled human liver microsomes, ten donors; details: MH 10 µM, in the presence of TIC 1 µM
Description: as §1, §2

CYP1A2 [16] = molecular target: T4, CYP1A2; experiment: Inhibition of CYP1A2 (phenacetin O-deethylation) in HLMs; format: in vitro ADME; set-up: tissue Cypex Ltd. (U.K.); host or cells: pooled human liver microsomes, ten donors
Description: as §1, §3
(§6) Therefore, Dixon plots for the inhibition of CYP1A2 and CYP2C19 were determined by incubating the substrate probe at multiple concentrations with or without the test inhibitor at multiple concentrations with the HLMs and cofactors. The inhibition data obtained from the pilot experiments were used as a guide to generate appropriate probe substrate and test inhibitor concentrations for the determination of the Ki values for each CYP isoform. The isoform-specific probe substrate concentrations used were 3 to 100 µM phenacetin for CYP1A2 and 15 to 120 µM S-mephenytoin for CYP2C19. The MH concentrations used were 0 to 100 µM.
as §2

CYP2C19 [17] = molecular target: T5, CYP2C19; experiment: Inhibition of CYP2C19 (S-Mephenytoin 4-hydroxylation) in HLMs; format: in vitro ADME; set-up: tissue Cypex Ltd. (U.K.); host or cells: pooled human liver microsomes, ten donors
Description: as §1, §3, §6, §2

SMILES: Cc1ncsc1CCCl [CHL, chlormethiazole hydrochloride]
- Ki (CYP2E1; read-out: Ki, specific inhibitor reported value, CYP2E1): 12 µM

SMILES: CCN(CC)C(=S)S [DIE, diethyldithiocarbamate]
- IC50 (CYP2E1): 21.3 µM

SMILES: COc1ccc2ccc(=O)oc2c1C[C@H](O)C(C)(C)O [MH, Meranzin hydrate]
- Km [1]: 10.3 ± 1.3 µM
- Vmax of MH metabolism [1]: 99.1±3.3 nmol/mg protein/min
- Km ([1]; listed as Meranzin hydrate): 10.3 µM
- Vmax of MH metabolism ([1]; listed as Meranzin hydrate): 99.11 nmol/mg protein/min
- effect on metabolism (MCR) of MH (CYP2C9 [2]): no obvious inhibitory effects
- effect on metabolism (MCR) of MH (CYP2D6 [3]): no obvious inhibitory effects
- effect on metabolism (MCR) of MH (CYP3A4 [4]): no obvious inhibitory effects
- IC50 (CYP2C9 [5]; CYP2C9, classification of Kong et al [23], read-out: inhibitor potency class by IC50): > 50 µM
- IC50 (CYP2C9 [5]; HLMs, tolbutamide 100 µM, read-out: IC50): > 100 µM
- IC50 (CYP2D6 [6]; CYP2D6, classification of Kong et al [23], read-out: inhibitor potency class by IC50): > 50 µM
- IC50 (CYP2D6 [6]; HLMs, metoprolol 7.5 µM, read-out: IC50): > 100 µM
- IC50 (CYP3A4 [7]; CYP3A4, classification of Kong et al [23], read-out: inhibitor potency class by IC50): > 50 µM
- IC50 (CYP3A4 [7]; HLMs, midazolam 5 µM, read-out: IC50): > 100 µM
- amplitude of contractility in the longitudinal and circular jejunum muscles [8]: increase the amplitude of contractility
- gastric emptying [9]: significantly accelerated
- intestinal transit [9]: significantly accelerated
- Km (CYP1A2 [10]): 8 ± 1.6 µM
- Vmax of MH metabolism (CYP1A2 [10]): 112.4±5.7 nmol/nmol P450/min
- Vmax of MH metabolism (CYP1A2 [10]; listed as Meranzin hydrate): 112.4 nmol/nmol P450/min
- Km (CYP2C19 [11]): 25.9 ± 6.6 µM
- Vmax of MH metabolism (CYP2C19 [11]): 134.3±12.4 nmol/nmol P450/min
- Km (CYP2C19 [11]; listed as Meranzin hydrate): 25.9 µM
- Vmax of MH metabolism (CYP2C19 [11]; listed as Meranzin hydrate): 134.3 nmol/nmol P450/min
- MCR of MH, % of that of the control (CYP1A2 [12]; recombinant CYP1A2, MH 10 µM): 43.5%
- MCR of MH, % of that of the control (CYP1A2 [12]; recombinant CYP1A2, MH 50 µM): 60.5%
- MCR of MH, % of that of the control (CYP2C19 [13]; recombinant CYP2C19, MH 10 µM): 68.5%
- MCR of MH, % of that of the control (CYP2C19 [13]; recombinant CYP2C19, MH 50 µM): 80.5%
- metabolic clearance rate (MCR) of MH, % of that of the control (CYP1A2 [14]): 29.1±7.2% and 29.1%
- metabolic clearance rate (MCR) of MH, % of that of the control (CYP2C19 [15]): 41.3±11.1% and 41.3%
- type of inhibition (CYP1A2 [16]; CYP1A2, HLMs, Dixon / Lineweaver-Burk plots): competitive
- IC50 of MH relative to that of FUR (CYP1A2 [16]; CYP1A2, phenacetin O-deethylation, HLMs, higher than FUR): 3.2 fold
- Ki of MH relative to that of FUR (CYP1A2 [16]; CYP1A2, phenacetin O-deethylation, higher than FUR): approximately 1.5 fold
- IC50 (CYP1A2 [16]; CYP1A2, classification of Kong et al [23], read-out: inhibitor potency class by IC50): < 10 µM
- IC50 (CYP1A2 [16]; HLMs, phenacetin 10 µM, brackets = 95% confidence interval, read-out: IC50): 4.47 µM
- Ki (CYP1A2 [16]; HLMs, phenacetin 3 to 100 µM, MH 0 to 100 µM): 4.56 µM
- type of inhibition (CYP2C19 [17]; CYP2C19, HLMs, Dixon / Lineweaver-Burk plots): competitively; also recorded: full competitive inhibition
- IC50 (CYP2C19 [17]; CYP2C19, classification of Kong et al [23], read-out: inhibitor potency class by IC50): 10 to 50 µM
- Ki (CYP2C19 [17]; HLMs, S-mephenytoin 15 to 120 µM, MH 0 to 100 µM): 42.6 µM
